Read-outs that look alike come from different tables or passages of the source.
What was measured:
[1] = cited from earlier work
[2] = ref protocol Section 1.4.1.2, cited from earlier work
cytochrome P450 (CYP)3A4 = system: cytochrome P450 (CYP)3A4; set-up: method as in protocol Section 1.4.1.2; details: ref protocol Section 1.4.1.2; cited from earlier work
[3] = system: 23 isolates of subtype C viruses; set-up: method as in protocol Section 1.4.1.2; details: 23 subtype C isolates; ref protocol Section 1.4.1.2; read-out: EC50, median; cited from earlier work
HIV-1 [4] = assay: Protocol-defined virologic failure and drug resistance testing (GenoSure MG, PhenoSense); format: in vivo, HIV-1-infected adults; details: through Week 24
Excerpt: PDVF was defined as either: (1) confirmed HIV-1 RNA ≥40 copies/mL at any time after prior confirmed suppression to <40 copies/mL; or (2) a confirmed >1 log10 copies/mL above the nadir level. Genotypic information required for screening was generated using the GenoSure® MG assay; genotypic information and phenotypic observations during the treatment period were generated using the PhenoSense® combination resistance test.

[5] = system: P gp, NTCP, OAT1, OAT3, MRP2, BSEP; set-up: method as in protocol Section 1.4.1.2; details: ref protocol Section 1.4.1.2; cited from earlier work
[6] = Population PK model (NONMEM); format: in vivo, HIV-1-infected adults
Experimental: Population PK analyses were conducted via non-linear mixed effects using non-linear mixed-effects modeling (NONMEM) software, version 7, level 2.0 (ICON Development Solutions, Hanover, Maryland, USA).[17] A summary of the population PK modeling methods and exposure response exploratory analyses for efficacy and safety is included in Supporting information.
Population pharmacokinetic (PK) analyses were conducted via nonlinear mixed-effects modelling using nonlinear mixed effects modeling (NONMEM) software, version 7, level 2.0 (ICON Development Solutions, Hanover, MD). Assessment of model adequacy and decision about increasing model complexity was driven by the data and guided by goodness-of-fit criteria, including visual inspection of diagnostic scatter plots (observed versus predicted concentration, residual/weighted residual versus predicted concentration or time and histograms of individual random effects, for example), successful convergence of the minimization routine, plausibility of parameter estimates, precision of parameter estimates, correlation between model parameter estimation errors < 0.95, and the Akaike information criterion (AIC), given the minimum objective function value and number of estimated parameters. An exploratory investigation of covariate-parameter relationships was undertaken as part of the population PK analysis. Predictive performance was assessed using stratified non-parametric bootstrapping (n=500). Following the construction of a suitable PK model, individual-specific steady-state exposure metrics were derived for exposure-response investigation. An exploratory plotting analysis was performed to investigate exposure–response relationships for efficacy and safety endpoints, where endpoints including fraction of participants with <40 c/mL at Week 24 (modified intent-to-treat population) and percentage of participants with Grade 1, 2, 3, and 4 gastrointestinal events (adverse events >7 days) were analysed as a function of exposure quantiles.

[7] = system: mouse P-glycoprotein (P-gp); details: higher bioavailability in P-gp knock-out mice / with elacridar; ref protocol Section 1.4.1.2; cited from earlier work
P-gp = system: P-gp; set-up: method as in protocol Section 1.4.1.2; details: ref protocol Section 1.4.1.2; cited from earlier work
HIV-1 [8] = assay: Phase IIb study 205891: plasma HIV-1 RNA response at Week 24 (FDA snapshot, observed); format: in vivo, HIV-1-infected adults; details: Week 24, mITT; GSK3532795: range across 60, 120, 180 mg arms; EFV 600 mg; each + TDF/FTC
Experimental: The primary endpoint was determination of the proportion of participants with plasma HIV-1 RNA <40 copies/mL at Week 24 after treatment with GSK3532795 or efavirenz (EFV).
205891 was a Phase IIb, randomized, active-controlled, double-blind trial performed at 58 sites in 12 countries across South America, North America, South Africa, and Europe. Participants were randomized 1:1:1:1 to one of four treatment arms; GSK3532795 at doses of 60 mg, 120 mg or 180 mg once daily (QD), and one reference arm with EFV at a dose of 600 mg QD, each given in combination with TDF/FTC 300/200 mg QD.
Participants attended study visits at screening, on Day 1, and once every 4 weeks from Week 4 to Week 24 (telephonic visits were conducted at Week 20). Participants were expected to continue treatment, then, through Week 96, with visit intervals every 8–12 weeks. A post-dose safety follow-up visit was also conducted 12 weeks after treatment discontinuation. Plasma HIV-1 RNA levels were quantified by the Abbott RealTime HIV-1 assay.
The FDA-defined snapshot algorithm was used for primary endpoint efficacy assessment, using the last plasma HIV-1 RNA value in the pre-defined Week 24 visit window (± 6 weeks) to determine response. The modified intent-to-treat (mITT) population consisted of participants who received at least one dose of GSK3532795 or EFV. […]

[9] = cited from earlier work; remark: listed apart in the source
[10] = ref protocol Section 1.4.1.2, cited from earlier work; remark: listed apart in the source
OCT2 = system: OCT2; set-up: method as in protocol Section 1.4.1.2; details: preliminary data; ref protocol Section 1.4.1.2; cited from earlier work
[11] = system: HIV-1 with A364V or V362I plus secondary changes; set-up: method as in protocol Section 1.4.1.2; details: ref protocol Section 1.4.1.2, cited from earlier work
[12] = system: reverse transcriptase (RT), protease, and integrase inhibitor-resistant viruses; details: cited from earlier work
[13] = set-up: method as in Study AI468041; details: BMS-955176 80 mg SDD suspension with combined oral contraceptive; ref Study AI468041; cited from earlier work
HIV-1 clinical isolates = details: cited from earlier work

## C=C(C)[C@@H]1CC[C@]2(NCCN3CCS(=O)(=O)CC3)CC[C@]3(C)[C@H](CC[C@@H]4[C@@]5(C)CC=C(c6ccc(C(=O)O)cc6)C(C)(C)[C@@H]5CC[C@]43C)[C@@H]12 [GSK3532795]
[1]; at 20 mg/kg, ref protocol Section 1.4.1.2
  Blood pressure and electrocardiogram: unaffected
[1]; dog, in vivo
  No-observed-effect level (NOEL/NOAEL) for cardiovascular effects (heart rate): 2 mg/kg
[2]; 1 mg/kg/day
  AUC at NOAEL: 64.9 gh/mL
[2]; 3 mg/kg/day
  AUC at lowest dose with effects: 135 gh/mL
[2]; dog 9-month, stomach histologic changes
  NOAEL: 1 mg/kg/day
Cytochrome P450 (CYP)3A4
  Metabolism in human in vitro systems: primarily mediated via cytochrome P450 (CYP)3A4
[3]
  EC50: 5.6 nM
HIV-1 [4]; 60 mg arm
  Rate of protocol-defined virologic failure (PDVF): 12% (6/50)
HIV-1 [4]; 120 mg arm
  Rate of protocol-defined virologic failure (PDVF): 10% (5/52)
HIV-1 [4]; 180 mg arm
  Rate of protocol-defined virologic failure (PDVF): 6% (3/51)
[5]
  Inhibition of P gp, NTCP, OAT1, OAT3, MRP2, and BSEP: not an inhibitor
[6]; compared with White participants
  Reduction in clearance in African-American participants: 23%
[6]; final population PK model
  Additive residual error: 37400
  First-order absorption rate (Ka), estimate: 0.0236 h⁻¹
  Interindividual variance of CL: 0.0610
  Interindividual variance of Ka: 0.164
  Interindividual variance of V: 0.462
  Interoccasion variance of F1: 0.0512
  Proportional residual error: 0.0165
[6]; human, in vivo, oral, final population PK model, read-out: Clearance (CL), estimate (converted)
  clearance: 37.3 mL/min
[6]; human, in vivo, oral, final population PK model, read-out: Volume of distribution (V), estimate
  Vd: 5.58 L
[6]; relative to no diarrhea
  Increase in clearance in participants with Grade ≥2 diarrhea: 18%
[7]
  P-gp substrate status: substrate of mouse P-glycoprotein (P-gp)
P-gp
  P-gp inhibition: No P-gp inhibition
HIV-1 [8]
  Participants achieving HIV-1 RNA <40 copies/mL: 76–83%
[9]; 30 mg/kg/day, ref protocol Section 1.4.1.2
  AUC at NOAEL: 1.135e+08 µg·h/mL
[9]; 100 mg/kg/day, 1 male, end of 2-week recovery, ref protocol Section 1.4.1.2
  ALT activity not recovered, fold: 1.94 x
[9]; 100 mg/kg/day, ref protocol Section 1.4.1.2
  AUC at dose with dose-limiting toxicity: 357 g·h/mL
[9]; 300 mg/kg/day, Days 8 to 9, ref protocol Section 1.4.1.2
  Finding at high dose: early euthanasia of all the rats
[9]; rat, in vivo
  NOAEL: 30 mg/kg/day
[10]; mice, no maternal toxicity at any dose
  Developmental toxicity classification: selective developmental toxicant
[10]; mouse EFD
  Developmental NOAEL: 45 mg/kg/day
[10]; printed dose 100 mg/kg/day, […] in control litters
  Cumulative postimplantation losses: 11.5%
[10]
  Reductions in fetal body weight relative to control values: 5%
OCT2
  Inhibition of OCT2: does not inhibit OCT2
[11]; V362I plus secondary change-containing viruses, read-out: EC50, median
  EC50: 25 nM
[11]; virus with the A364V change
  Loss of susceptibility: > 100 fold
[12]; EC50 values similar to wild-type, ref protocol Section 1.4.1.2
  Activity against RT, protease, and integrase inhibitor-resistant viruses: retains complete activity
[12]; major and minor PI-resistance determinants in protease and Gag
  Activity against a panel of PI-resistant isolates from PI-treated subjects: maintained activity
[13]
  Effect on exposures to ethinyl estradiol (EE) and norelgestromin (NGMN): reduced
HIV-1 clinical isolates; PBMCs, CRF01_AE subtype, N = 7, ref protocol Section 1.4.1.2
  EC50: 77 nM
HIV-1 clinical isolates; in vitro, ref protocol Section 1.4.1
  Fold less susceptible, CRF01_AE (clade AE) compared to clade B: 2-3 fold

Source: publication PMC6198970, “Safety, efficacy, and dose response of the maturation inhibitor GSK3532795 (formerly known as BMS-955176) plus tenofovir/emtricitabine once daily in treatment-naive HIV-1-infected adults: Week 24 primary analysis from a randomized Phase IIb trial” (PLoS ONE, 2018)
